Assay results: PubChem BioAssay AID1259407 (Chemical Carcinogenesis Research Information System (CCRIS), 2018)
Activity calls are given as the source filed them. The rule behind the calls is not given here.

Test system: CCRIS mutagenicity, Ames/micronucleus/aberration tests
Experiment: CCRIS mutagenicity studies
[1] = Test System: AMES SALMONELLA TYPHIMURIUM, Strain/Indicator: TA100, Metabolic Activation: RAT, LIVER, S-9, AROCLOR 1254, Method: STANDARD PLATE
[2] = Test System: AMES SALMONELLA TYPHIMURIUM, Strain/Indicator: TA100, Metabolic Activation: NONE, Method: STANDARD PLATE
[3] = Test System: AMES SALMONELLA TYPHIMURIUM, Strain/Indicator: TA1535, Metabolic Activation: NONE, Method: STANDARD PLATE

## O=C1c2ccccc2C(=O)c2c1cc(O[C@H]1O[C@H](CO[C@@H]3OC[C@@H](O)[C@H](O)[C@H]3O)[C@@H](O)[C@H](O)[C@H]1O)c(CO)c2O
Test System: AMES SALMONELLA TYPHIMURIUM, Strain/Indicator: TA98, Metabolic Activation: NONE, Method: PREINCUBATION (PH 6.5 OR 7.4)
  mutagenic call: inactive; negative
Test System: AMES SALMONELLA TYPHIMURIUM, Strain/Indicator: TA98, Metabolic Activation: RAT, LIVER, S-9, SODIUM BARBITAL AND BETA-NAPHTHOFLAVONE, Method: PREINCUBATION (PH 6.5 OR 7.4)
  mutagenic call: inactive; negative
Test System: AMES SALMONELLA TYPHIMURIUM, Strain/Indicator: TA100, Metabolic Activation: NONE, Method: PREINCUBATION (PH 6.5 OR 7.4)
  mutagenic call: active; positive
Test System: AMES SALMONELLA TYPHIMURIUM, Strain/Indicator: TA100, Metabolic Activation: RAT, LIVER, S-9, SODIUM BARBITAL AND BETA-NAPHTHOFLAVONE, Method: PREINCUBATION
  mutagenic call: inactive; negative

## CN(CCC#N)c1ccc(N=Nc2ccc3ncsc3c2)cc1
Test System: AMES SALMONELLA TYPHIMURIUM, Strain/Indicator: TA98, Metabolic Activation: RAT, LIVER, S-9, AROCLOR, Method: PREINCUBATION
  mutagenic call: active; positive
Test System: AMES SALMONELLA TYPHIMURIUM, Strain/Indicator: TA98, Metabolic Activation: RAT, LIVER, S-9, AROCLOR, Method: STANDARD PLATE
  mutagenic call: active; positive

## O=[N+]([O-])c1ccc2ccc3cc4c(c5ccc1c2c35)[C@H](O)[C@@H](O)C=C4
Test System: AMES SALMONELLA TYPHIMURIUM, Strain/Indicator: TA98(1,8-DNP6), Metabolic Activation: NONE
  mutagenic call: active; positive
Test System: AMES SALMONELLA TYPHIMURIUM, Strain/Indicator: TA98(1,8-DNP6), Metabolic Activation: RAT, LIVER, S-9, AROCLOR 1254
  mutagenic call: active; positive
Test System: AMES SALMONELLA TYPHIMURIUM, Strain/Indicator: TA98(NR), Metabolic Activation: NONE
  mutagenic call: active; positive
Test System: AMES SALMONELLA TYPHIMURIUM, Strain/Indicator: TA98(NR), Metabolic Activation: RAT, LIVER, S-9, AROCLOR 1254
  mutagenic call: active; positive
Test System: AMES SALMONELLA TYPHIMURIUM, Strain/Indicator: TA98, Metabolic Activation: NONE
  mutagenic call: active; positive
Test System: AMES SALMONELLA TYPHIMURIUM, Strain/Indicator: TA98, Metabolic Activation: RAT, LIVER, S-9, AROCLOR 1254
  mutagenic call: active; positive
Test System: CHINESE HAMSTER OVARY, Strain/Indicator: CHO-K1-BH4 (HGPRT), Metabolic Activation: NONE
  mutagenic call: inactive; negative
Test System: CHINESE HAMSTER OVARY, Strain/Indicator: CHO-K1-BH4 (HGPRT), Metabolic Activation: RAT, LIVER, S-9, 3-METHYLCHOLANTHRENE
  mutagenic call: inactive; negative

## OC1C=C2c3cc4ccccc4cc3-c3cccc(c32)C1O (stereo not drawn)
[1]
  mutagenic call: active; positive

## CC(=O)OC[C@@]1(O)CC23CC[C@@H]4c5ccoc5CC[C@@]4(C)[C@@H]2CC[C@@H]1C3
Test System: AMES SALMONELLA TYPHIMURIUM, Strain/Indicator: TM677, Metabolic Activation: NONE, Method: PREINCUBATION
  mutagenic call: inactive; negative
Test System: AMES SALMONELLA TYPHIMURIUM, Strain/Indicator: TM677, Metabolic Activation: RAT, LIVER, S-9, AROCLOR 1254, Method: PREINCUBATION
  mutagenic call: inactive; negative

## CS(=O)(=O)OC[C@H](O)[C@@H](O)COS(C)(=O)=O
[2]
  mutagenic call: active; positive
[3]
  mutagenic call: active; positive
Test System: AMES SALMONELLA TYPHIMURIUM, Strain/Indicator: TA7004, Metabolic Activation: NONE, Method: STANDARD PLATE
  mutagenic call: active; positive
Test System: AMES SALMONELLA TYPHIMURIUM, Strain/Indicator: TA7005, Metabolic Activation: NONE, Method: STANDARD PLATE
  mutagenic call: inactive; negative
Test System: CHINESE HAMSTER OVARY, Strain/Indicator: AS52/6-THIOGUANINE, Metabolic Activation: NONE
  mutagenic call: active; positive

## Nc1ccc(O)c([N+](=O)[O-])c1
Test System: AMES SALMONELLA TYPHIMURIUM, Strain/Indicator: TA97, Metabolic Activation: HAMSTER, LIVER, S-9, AROCLOR 1254 (10%), Method: PREINCUBATION
  mutagenic call: inactive; negative
Test System: AMES SALMONELLA TYPHIMURIUM, Strain/Indicator: TA97, Metabolic Activation: NONE, Method: PREINCUBATION
  mutagenic call: inactive; negative
Test System: AMES SALMONELLA TYPHIMURIUM, Strain/Indicator: TA97, Metabolic Activation: RAT, LIVER, S-9, AROCLOR 1254 (10%), Method: PREINCUBATION
  mutagenic call: inactive; negative
Test System: AMES SALMONELLA TYPHIMURIUM, Strain/Indicator: TA98, Metabolic Activation: HAMSTER, LIVER, S-9, AROCLOR 1254 (10%), Method: PREINCUBATION
  mutagenic call: inactive; negative
Test System: AMES SALMONELLA TYPHIMURIUM, Strain/Indicator: TA98, Metabolic Activation: NONE, Method: PREINCUBATION
  mutagenic call: active; positive
Test System: AMES SALMONELLA TYPHIMURIUM, Strain/Indicator: TA98, Metabolic Activation: NONE, Method: STANDARD PLATE
  mutagenic call: inactive; negative
Test System: AMES SALMONELLA TYPHIMURIUM, Strain/Indicator: TA98, Metabolic Activation: RAT, LIVER, S-9, AROCLOR 1254 (10%), Method: PREINCUBATION
  mutagenic call: inactive; negative
Test System: AMES SALMONELLA TYPHIMURIUM, Strain/Indicator: TA98, Metabolic Activation: RAT, LIVER, S-9, AROCLOR 1254, Method: STANDARD PLATE
  mutagenic call: inactive; negative
Test System: AMES SALMONELLA TYPHIMURIUM, Strain/Indicator: TA100, Metabolic Activation: HAMSTER, LIVER, S-9, AROCLOR 1254 (10%), Method: PREINCUBATION
  mutagenic call: inactive; negative
Test System: AMES SALMONELLA TYPHIMURIUM, Strain/Indicator: TA100, Metabolic Activation: NONE, Method: PREINCUBATION
  mutagenic call: inactive; negative
[2]
  mutagenic call: inactive; negative
Test System: AMES SALMONELLA TYPHIMURIUM, Strain/Indicator: TA100, Metabolic Activation: RAT, LIVER, S-9, AROCLOR 1254 (10%), Method: PREINCUBATION
  mutagenic call: inactive; negative
[1]
  mutagenic call: inactive; negative
Test System: AMES SALMONELLA TYPHIMURIUM, Strain/Indicator: TA1535, Metabolic Activation: HAMSTER, LIVER, S-9, AROCLOR 1254 (10%), Method: PREINCUBATION
  mutagenic call: inactive; negative
Test System: AMES SALMONELLA TYPHIMURIUM, Strain/Indicator: TA1535, Metabolic Activation: NONE, Method: PREINCUBATION
  mutagenic call: inactive; negative
[3]
  mutagenic call: inactive; negative
Test System: AMES SALMONELLA TYPHIMURIUM, Strain/Indicator: TA1535, Metabolic Activation: RAT, LIVER, S-9, AROCLOR 1254 (10%), Method: PREINCUBATION
  mutagenic call: inactive; negative
Test System: AMES SALMONELLA TYPHIMURIUM, Strain/Indicator: TA1535, Metabolic Activation: RAT, LIVER, S-9, AROCLOR 1254, Method: STANDARD PLATE
  mutagenic call: inactive; negative
Test System: AMES SALMONELLA TYPHIMURIUM, Strain/Indicator: TA1537, Metabolic Activation: NONE, Method: STANDARD PLATE
  mutagenic call: inactive; negative
Test System: AMES SALMONELLA TYPHIMURIUM, Strain/Indicator: TA1537, Metabolic Activation: RAT, LIVER, S-9, AROCLOR 1254, Method: STANDARD PLATE
  mutagenic call: inactive; negative
Test System: AMES SALMONELLA TYPHIMURIUM, Strain/Indicator: TA1538, Metabolic Activation: NONE, Method: STANDARD PLATE
  mutagenic call: inactive; negative
Test System: AMES SALMONELLA TYPHIMURIUM, Strain/Indicator: TA1538, Metabolic Activation: RAT, LIVER, S-9, AROCLOR 1254, Method: STANDARD PLATE
  mutagenic call: inactive; negative
Test System: E. COLI, Strain/Indicator: WP2 UVRA, Metabolic Activation: HAMSTER, LIVER, S-9, AROCLOR 1254, Method: STANDARD PLATE
  mutagenic call: inactive; negative
Test System: E. COLI, Strain/Indicator: WP2 UVRA, Metabolic Activation: HAMSTER, LIVER, S-9, Method: STANDARD PLATE
  mutagenic call: inactive; negative
Test System: E. COLI, Strain/Indicator: WP2 UVRA, Metabolic Activation: MOUSE, LIVER, S-9, AROCLOR 1254, Method: STANDARD PLATE
  mutagenic call: inactive; negative
Test System: E. COLI, Strain/Indicator: WP2 UVRA, Metabolic Activation: MOUSE, LIVER, S-9, Method: STANDARD PLATE
  mutagenic call: inactive; negative
Test System: E. COLI, Strain/Indicator: WP2 UVRA, Metabolic Activation: NONE, Method: STANDARD PLATE
  mutagenic call: inactive; negative
Test System: E. COLI, Strain/Indicator: WP2 UVRA, Metabolic Activation: RAT, LIVER, S-9, AROCLOR 1254, Method: STANDARD PLATE
  mutagenic call: inactive; negative
Test System: E. COLI, Strain/Indicator: WP2 UVRA, Metabolic Activation: RAT, LIVER, S-9, Method: STANDARD PLATE
  mutagenic call: inactive; negative
Test System: MOUSE LYMPHOMA, Strain/Indicator: L5178Y (TK+/TK-), Metabolic Activation: NONE, Method: SUSPENSION/PLATE
  mutagenic call: active; positive
Test System: MOUSE LYMPHOMA, Strain/Indicator: L5178Y (TK+/TK-), Metabolic Activation: RAT, LIVER, S-9, AROCLOR 1254, Method: SUSPENSION/PLATE
  mutagenic call: active; positive
